Experiment: Metabolic stability in liver microsomes
Assay type: in vitro ADME
Conditions: rat liver microsomes, 37° C., pH 7.4, average of 2 experiments; read-out: half-life for degradation
Procedure: Liver microsomes are subcellular fractions that contain drug-metabolizing enzymes, such as cytochrome P450, flavin monooxygenases and UDP glucuronyl transferases. […] Rat liver microsomes are a commonly used animal model for determination of drug metabolism (e.g., see Shayeganpour et al., Drug Metab Dispos 34 (1): 43-50 (2006)).
The metabolism of Compound 102 was evaluated in rat liver microsomes. The metabolism was initiated by adding 25 μL of cofactor (100 mM of glucose 6-phosphate, 20 mM of NADP, […], and 63 mM of UDPGA) to wells containing 50 μL of 5 mg/mL of rat liver microsomes and 425 μL of 0.59 mM of Compound 102 made in 100 mM phosphate buffer (pH 7.4) at 37° C. At 0, 5, 10 and 20 minutes, a 60 μL aliquot of the sample was withdrawn. The unmetabolized test substance remaining in the sample was determined using HPLC and mass spectrometry and the half-life for degradation of the compound was calculated in minutes using curve fitting.

## N#Cc1ccc(N2CCC[C@@H]2[C@@H](O)C(F)(F)F)cc1C(F)(F)F [Compound 102, R,R-4-(2-(1-Hydroxyl-2,2,2-trifluoroethyl)-pyrrolidinyl)-2-trifluoromethyl-benzonitrile]
  half-life at 0.5 mM: 44.5 min

— US11358931B2, “Selective androgen receptor modulators (SARMs) and uses thereof” (priority 2007, dated 2022)
